Where “and” joins values, the source holds several entries; their conditions need not be identical. Equal entries are not always repeated. Records with an inconclusive call do not appear.

Experimental findings from PubChem BioAssay AID194 (DTP/NCI, 2004) are described below.

The assay deals with BDF1 mice, B16 melanoma s.c., survival/tumor T/C. Nature of the assay: NCI In Vivo Anticancer Drug Screen. Data for tumor model B16 Melanoma (subcutaneous) in B6D2F1 (BDF1) mice. The conditions noted are these: endpoint: median survival time, higher = longer survival. Here is the method: The antitumor activity of compounds was measured in mice bearing transplantable tumors. Survival or tumor size were measured and the results are expressed as the measurement made in the treated group (T) divided by the measurement made in the vehicle treated control group (C). The tumor model used in this assay is B16 Melanoma (subcutaneous) in B6D2F1 (BDF1) mice

Regarding `COc1cccc2c1C(=O)c1c(O)c3c(c(O)c1C2=O)CC(O)(C(C)=O)CC3OC1CC(N)C(O)C(C)O1` (stereo not given), the T/C was 107 % of control (dose: 5.8 mg/kg/injection, schedule: Q01DX009 (ip), vehicle: saline); 103 % of control (dose: 11.7 mg/kg/injection, schedule: Q01DX009 (ip), vehicle: saline); 120 % of control (dose: 23.4 mg/kg/injection, schedule: Q01DX009 (ip), vehicle: saline).
Consider `CC(=O)O[C@H]1C(=O)[C@@]2(C)[C@H]([C@H](OC(=O)c3ccccc3)[C@]3(O)C[C@H](OC(=O)[C@H](O)[C@@H](NC(=O)c4ccccc4)c4ccccc4)C(C)=C1C3(C)C)[C@]1(OC(C)=O)CO[C@@H]1C[C@@H]2O`, for which the T/C by setting is: (dose: 1.32 mg/kg/injection, schedule: Q01DX009 (ip), vehicle: Klucel (hydroxypropylcellulose) (HPC)) 91 % of control; (dose: 1.32 mg/kg/injection, schedule: Q01DX009 (ip), vehicle: other) 100 % of control; (dose: 1.98 mg/kg/injection, schedule: Q01DX009 (ip), vehicle: Klucel (hydroxypropylcellulose) (HPC)) 95 % of control; (dose: 1.98 mg/kg/injection, schedule: Q01DX009 (ip), vehicle: other) 88 % of control; (dose: 2.96 mg/kg/injection, schedule: Q01DX009 (ip), vehicle: Klucel (hydroxypropylcellulose) (HPC)) 116 % of control; (dose: 2.96 mg/kg/injection, schedule: Q01DX009 (ip), vehicle: other) 88 % of control. The T/C by setting is: (dose: 4.0 mg/kg/injection, schedule: Q01DX009 (ip), vehicle: Klucel (hydroxypropylcellulose) (HPC)) 93 % of control; (dose: 4.44 mg/kg/injection, schedule: Q01DX009 (ip), vehicle: other) 123 % of control; (dose: 6.0 mg/kg/injection, schedule: Q01DX009 (ip), vehicle: Klucel (hydroxypropylcellulose) (HPC)) 97 % of control; (dose: 6.67 mg/kg/injection, schedule: Q01DX009 (ip), vehicle: Klucel (hydroxypropylcellulose) (HPC)) 117 % of control; (dose: 9.0 mg/kg/injection, schedule: Q01DX009 (ip), vehicle: Klucel (hydroxypropylcellulose) (HPC)) 93 % of control; (dose: 11.0 mg/kg/injection, schedule: Q04DX003 (ip), vehicle: Klucel (hydroxypropylcellulose) (HPC)) 102 % of control. Also, the T/C (dose: 13.0 mg/kg/injection, schedule: Q01DX001 (ip), vehicle: Klucel (hydroxypropylcellulose) (HPC)) was 97 % of control; the T/C (dose: 16.0 mg/kg/injection, schedule: Q04DX003 (ip), vehicle: Klucel (hydroxypropylcellulose) (HPC)) was 91 % of control; the T/C (dose: 20.0 mg/kg/injection, schedule: Q01DX001 (ip), vehicle: Klucel (hydroxypropylcellulose) (HPC)) is 122 % of control; the T/C (dose: 24.0 mg/kg/injection, schedule: Q04DX003 (ip), vehicle: Klucel (hydroxypropylcellulose) (HPC)) was 93 % of control; the T/C (dose: 30.0 mg/kg/injection, schedule: Q01DX001 (ip), vehicle: Klucel (hydroxypropylcellulose) (HPC)) is 106 % of control.
On to `COC(=O)[C@@H]1c2cc3c(c(O)c2[C@@H](OC2OC(C)C(OC)C(C)(OC)C2OC)C[C@]1(C)O)C(=O)c1c(O)cc2c(c1C3=O)O[C@H]1O[C@]2(C)[C@H](O)[C@@H](N(C)C)[C@@H]1O` (stereo not given in full), for which the T/C (dose: 0.5 mg/kg/injection, schedule: Q01DX009 (ip), vehicle: other) was 90 % of control; the T/C (dose: 125.0 micrograms/kg/injection, schedule: Q01DX009 (ip), vehicle: saline + alcohol) is 118 % of control; the T/C (dose: 500.0 micrograms/kg/injection, schedule: Q01DX009 (ip), vehicle: saline + alcohol) is 118 % of control; the T/C (dose: 1000.0 micrograms/kg/injection, schedule: Q01DX009 (ip), vehicle: saline + alcohol) was 109 % of control.
Regarding `C[C@H](CN1CC(=O)NC(=O)C1)N1CC(=O)NC(=O)C1`, the T/C by setting is: (dose: 6.25 mg/kg/injection, schedule: Q04DX003 (ip), vehicle: saline) 122 % of control; (dose: 8.0 mg/kg/injection, schedule: Q01DX009 (ip), vehicle: saline) 109 % of control; (dose: 12.5 mg/kg/injection, schedule: Q04DX003 (ip), vehicle: saline) 102 % of control; (dose: 16.0 mg/kg/injection, schedule: Q01DX009 (ip), vehicle: saline) 119 % of control; (dose: 16.0 mg/kg/injection, schedule: Q01DX009 (ip), vehicle: water) 96 % of control; (dose: 25.0 mg/kg/injection, schedule: Q04DX003 (ip), vehicle: saline) 115 % of control. Further, the T/C (dose: 32.0 mg/kg/injection, schedule: Q01DX009 (ip), vehicle: saline) was 112 % of control; the T/C (dose: 32.0 mg/kg/injection, schedule: Q01DX009 (ip), vehicle: water) was 109 % of control; the T/C (dose: 50.0 mg/kg/injection, schedule: Q04DX003 (ip), vehicle: saline) is 111 % of control; the T/C (dose: 100.0 mg/kg/injection, schedule: Q04DX003 (ip), vehicle: saline) was 115 % of control; the T/C (dose: 200.0 mg/kg/injection, schedule: Q04DX003 (ip), vehicle: saline) is 122 % of control; the T/C (dose: 800.0 mg/kg/injection, schedule: Q04DX003 (ip), vehicle: saline) was 115 % of control.
For the molecule `CC[C@]1(O)C[C@H]2CN(CCc3c([nH]c4ccccc34)[C@@](C(=O)OC)(c3cc4c(cc3OC)N(C=O)[C@H]3[C@@](O)(C(=O)OC)[C@H](OC(C)=O)[C@]5(CC)C=CCN6CC[C@]43[C@@H]65)C2)C1`, the T/C is 100 % of control and 115 % of control (dose: 0.06 mg/kg/injection, schedule: Q01DX009 (ip), vehicle: saline); 104 % of control and 121 % of control (dose: 0.12 mg/kg/injection, schedule: Q01DX009 (ip), vehicle: saline); 100 % of control (dose: 0.13 mg/kg/injection, schedule: Q01DX009 (ip), vehicle: saline); 93 % of control (dose: 0.7 mg/kg/injection, schedule: Q04DX003 (ip), vehicle: saline); 100 % of control (dose: 1.0 mg/kg/injection, schedule: Q04DX003 (ip), vehicle: saline); 113 % of control (dose: 1.5 mg/kg/injection, schedule: Q04DX003 (ip), vehicle: saline).
Turning to `O=c1n(CC2CO2)c(=O)n(CC2CO2)c(=O)n1CC1CO1` (stereo not given), the T/C by setting is: (dose: 20.0 mg/kg/injection, schedule: Q01DX011 (ip), vehicle: saline) 109 % of control; (dose: 40.0 mg/kg/injection, schedule: Q01DX011 (ip), vehicle: saline) 155 % of control.
Take `COc1cccc2c1C(=O)c1c(O)c3c(c(O)c1C2=O)C[C@@](O)(/C(C)=N/NC(=O)c1ccccc1)C[C@@H]3OC1CC(N)C(O)C(C)O1` (stereo not given in full): the T/C was 103 % of control (dose: 3.0 mg/kg/injection, schedule: Q01DX009 (ip), vehicle: saline); 118 % of control (dose: 4.0 mg/kg/injection, schedule: Q01DX009 (ip), vehicle: saline); 121 % of control (dose: 6.0 mg/kg/injection, schedule: Q01DX009 (ip), vehicle: saline); 103 % of control (dose: 15.0 mg/kg/injection, schedule: Q04DX003 (ip), vehicle: saline); 93 % of control (dose: 30.0 mg/kg/injection, schedule: Q01DX001 (ip), vehicle: saline).
For the molecule `COC(=O)C(N)CCCCNc1ccc2c(cc1=O)C(NC(C)=O)CCc1cc(OC)c(OC)c(OC)c1-2` (stereo not given), the T/C is, setting by setting: (dose: 53.0 mg/kg/injection, schedule: Q01DX009 (ip), vehicle: saline) 118 % of control; (dose: 80.0 mg/kg/injection, schedule: Q01DX009 (ip), vehicle: saline) 90 % of control; (dose: 120.0 mg/kg/injection, schedule: Q01DX009 (ip), vehicle: saline) 106 % of control; (dose: 180.0 mg/kg/injection, schedule: Q01DX009 (ip), vehicle: saline) 90 % of control.
For the molecule `CC1(C)N=C(N)N=C(N)N1c1ccc(OCCCNC(=O)Nc2cccc(S(=O)(=O)F)c2)c(Cl)c1`, the T/C runs as follows: (dose: 50.0 mg/kg/injection, schedule: Q01DX009 (ip), vehicle: saline) 115 % of control; (dose: 100.0 mg/kg/injection, schedule: Q01DX009 (ip), vehicle: saline) 91 % of control.
Regarding `C[n+]1c(/C=C\C=C\N2CCCCC2)sc2ccccc21`, the T/C is 188 % of control (dose: 0.01 mg/kg/injection, schedule: Q01DX009 (ip), vehicle: Klucel (hydroxypropylcellulose) (HPC)); 170 % of control (dose: 0.02 mg/kg/injection, schedule: Q01DX009 (ip), vehicle: Klucel (hydroxypropylcellulose) (HPC)); 160 % of control (dose: 0.05 mg/kg/injection, schedule: Q01DX009 (ip), vehicle: Klucel (hydroxypropylcellulose) (HPC)); 171 % of control (dose: 0.1 mg/kg/injection, schedule: Q01DX009 (ip), vehicle: Klucel (hydroxypropylcellulose) (HPC)); 121 % of control (dose: 0.4 mg/kg/injection, schedule: Q01DX009 (ip), vehicle: Klucel (hydroxypropylcellulose) (HPC)).
